Reference: patent US20240092756A1, “METHODS AND COMPOSITION FOR KRAS MODIFICATIONS” (2692372 ONTARIO, INC., priority 2020, published 2024)

Target: KRAS G12C (Homo sapiens, UniProt P01116, G12C)
Test: SOS1-catalyzed KRAS coupled nucleotide exchange assay (Alpha technology)
Assay type: biochemical
Parameters: His; key: A: KRAS G12C bound and modulated
Conditions: inhibition of SOS1 mediated KRAS nucleotide exchange
Description: Method I: The inhibition of the SOS1-catalyzed nucleotide exchange activity of KRAS (e.g., KRAS G12C/C118A) was measured using Alpha (Amplified Luminescent Proximity Homogeneous Assay) technology. 20 nM GDP-bound human KRAS (G12C/C118A) protein was incubated with two-fold serially-diluted test compound or DMSO for 5 minutes at ambient temperature in reaction buffer (25 mM HEPES, pH 7.4; 10 mM MgCl2; 0.01% Triton X-100). For all subsequent steps, DTT was added to the reaction buffer at a final concentration of 1 mM. Next, GTP and SOS-1 were added in DTT-reaction buffer at final concentrations of 1.25 mM or 500 nM, respectively, and incubated at RT for 30 minutes. Finally, c-RAF RBD (50 nM final), Alpha glutathione donor beads (PerkinElmer; 20 μg/mL final), and AlphaLISAnickel chelate acceptor beads (PerkinElmer; 20 μg/mL final), all diluted in DTT-reaction buffer, were added. The reaction mixture was incubated at RT for 5 min, and then the plates were read on an EnVision® Multilabel Reader using the AlphaScreen protocol. Luminescence signal was measured at 570 nm following a 180 ms excitation at 680 nm. Signal intensity corresponded with the association of c-RAF RBD with GTP-bound KRAS G12C/C118A and was normalized to DMSO control.
Method II: Inhibition of the SOS1-catalyzed nucleotide exchange activity of KRAS^G12C was measured using Alpha technology (PerkinElmer). 50 nM GDP-bound human KRAS^G12C protein was incubated with serially-diluted compound or DMSO for 2 hrs at RT in RBD-RAS binding buffer (BPSBioscience). 1 mM GTP and 500 nM SOS-1 were added to the reaction mixture and incubated at RT for 30 min. GST-tagged RBD-cRAF was then added to the reaction mixture at a final concentration of 2.5 nM and incubated at RT for 30 min. Finally, Alpha Glutathione acceptor beads and Nickel chelate donor beads (PerkinElmer) were diluted to 1:500 and 1:250, respectively, and added to the reaction mixture. The final reaction was incubated at RT for 30 min. Plates were read on a TECAN SPARK® Multiplate Reader. The luminescence signal was measured at 615 nm following excitation at 680 nm. Signal intensity was normalized to DMSO control.

Row | KRAS-SOS1 Nucleotide Exchange | Compound
1 | A | Cc1cccc(C)c1-c1cc2nccc(N3CCN(Cc4c(F)c(F)c(F)c(F)c4S(C)(=O)=O)C[C@@H]3C)c2cc1Cl [Compound 45A, (S)-6-chloro-7-(2,6-dimethylphenyl)-4-(2-methyl-4-(2,3,4,5-tetrafluoro-6-(methylsulfonyl)benzyl)piperazin-1-yl)quinoline]
2 | A | O=S(=O)(NC1CN(c2ncnc3c2CCN(c2cccc4cccc(Cl)c24)C3)C1)c1c(F)c(F)c(F)c(F)c1F [Compound 21A, N-(1-(7-(8-chloronaphthalen-1-yl)-5,6,7,8-tetrahydropyrido[3,4-d]pyrimidin-4-yl)azetidin-3-yl)-2,3,4,5,6-pentafluorobenzenesulfonamide]
3 | A | CSc1c(F)c(F)c(F)c(F)c1N1CC(Nc2ncnc3cc(-c4ccccc4F)c(Cl)cc23)C1 [Compound 47A, 6-chloro-7-(2-fluorophenyl)-N-(1-(2,3,4,5-tetrafluoro-6-(methylthio)phenyl)azetidin-3-yl)quinazolin-4-amine]
4 | A | C[C@H]1CN(c2c(F)c(F)c(S(C)(=O)=O)c(F)c2F)CCN1c1ccnc2c(F)c(-c3c(O)cccc3F)c(Cl)cc12 (racemic) [Compound 24A, 2-(6-chloro-8-fluoro-4-((S)-2-methyl-4-(2,3,5,6-tetrafluoro-4-(methylsulfonyl)phenyl)piperazin-1-yl)quinolin-7-yl)-3-fluorophenol]
5 | A | CS(=O)(=O)c1c(F)c(F)c(NC2CN(c3ncnc4cc(-c5ccccc5F)c(Cl)cc34)C2)c(F)c1F [Compound 23A, 1-(6-chloro-7-(2-fluorophenyl)quinazolin-4-yl)-N-(2,3,5,6-tetrafluoro-4-(methylsulfonyl)phenyl)azetidin-3-amine]
6 | A | C[C@H]1CN(c2c(F)c(F)c(S(C)(=O)=O)c(F)c2F)CCN1c1ccnc2c(F)c(-c3c(O)cccc3F)c(Cl)cc12 (single isomer, unassigned) [Compound 26A]
7 | A | CSc1c(F)c(F)c(N2CCN(c3ccnc4c(F)c(-c5c(O)cccc5F)c(Cl)cc34)[C@@H](C)C2)c(F)c1F [Compound 29A, 2-(6-chloro-8-fluoro-4-((S)-2-methyl-4-(2,3,5,6-tetrafluoro-4-(methylthio)phenyl)piperazin-1-yl)quinolin-7-yl)-3-fluorophenol]
8 | A | Cc1cccc(C)c1-c1cc2nccc(N3CC(Nc4c(F)c(F)c(S(C)(=O)=O)c(F)c4F)C3)c2cc1Cl [Compound 22A, 1-(6-chloro-7-(2,6-dimethylphenyl)quinolin-4-yl)-N-(2,3,5,6-tetrafluoro-4-(methylsulfonyl)phenyl)azetidin-3-amine]
9 | A | C[C@H]1CN(c2c(F)c(F)c(F)c(F)c2[S+](C)[O-])CCN1c1ncnc2cc(-c3ccccc3F)c(Cl)cc12 (stereo partly drawn) [Compound 38A, 6-chloro-7-(2-fluorophenyl)-4-((2S)-2-methyl-4-(2,3,4,5-tetrafluoro-6-(methylsulfinyl)phenyl)piperazin-1-yl)quinazoline]
10 | A | C[C@H]1CN(c2c(F)c(F)c(S(C)(=O)=O)c(F)c2F)CCN1c1ccnc2c(F)c(-c3c(O)cccc3F)c(Cl)cc12 (single isomer, unassigned) [Compound 25A]
11 | A | C[S+]([O-])c1c(F)c(F)c(NC2CN(c3ncnc4cc(-c5ccccc5F)c(Cl)cc34)C2)c(F)c1F (racemic) [Compound 28A, 1-(6-chloro-7-(2-fluorophenyl)quinazolin-4-yl)-N-(2,3,5,6-tetrafluoro-4-(methylsulfinyl)phenyl)azetidin-3-amine]
12 | A | Cc1cccc(C)c1-c1cc2nccc(N3CC(Nc4c(F)c(F)c([S@+](C)[O-])c(F)c4F)C3)c2cc1Cl (racemic) [Compound 27A]
